Legend:
[1] = system: bovine vascular smooth muscle cells (bVSMCs); assay type: cell-based; settings: at the concentrations tested (0.5 to 100 μM), 7 days
In short: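 Bovine VSMCs grown 1 day in M199/20% FCS, then exposed to inhibitors at 0.5–100 μM in M199 + 5% FBS for 7 days, with medium ± inhibitor renewed every 2–3 days. Viability and proliferation read by MTT dehydrogenase activity. DMSO vehicle matched at ≤0.1%.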

[2] = system: bovine vascular smooth muscle cells (bVSMCs); test: o-Cresolphthalein Ca2+ assay, bVSMC GAD calcification model (Examples 4 and 5); assay type: cell-based
[3] = cited from earlier work
[4] = system: bovine vascular smooth muscle cells (bVSMCs); test: MTT cell viability assay, bVSMCs with or without GAD medium, 7 or 9 days (Example 5); assay type: cell-based
Protocol: As above, cells were treated either with medium only (“no-additions”; NA)+/−inhibitors, or with the GAD-medium+/−inhibitors. […] Additionally, an MTT assay was performed as a measure of cell viability/proliferation. Bovine VSMCs were seeded in 96 well plates and cultured in M199/20% FCS for 1 day. Then, the cells were incubated with inhibitor concentrations of 10 μM, 1 μM and 0.1 μM (in M199 medium+5% FBS). […] Then, the MTT assay was performed.

[5] = human, in vivo

Structure (SMILES): CN(C)c1ccc(O)c2c1C[C@H]1C[C@H]3[C@H](N(C)C)C(O)=C(C(N)=O)C(=O)[C@@]3(O)C(O)=C1C2=O [minocycline]
- Toxicity to bVSMCs (MTT assay, in words) [1]: non-toxic
- inhibition at 1 µM ([2]; Bos taurus, 216 h, bVSMCs, GAD medium, nine days, 1 μM, read-out: Reduction of Ca^2+ deposition compared to no potential inhibitor): ~38%
- inhibition at 10 µM ([2]; Bos taurus, 216 h, bVSMCs, GAD medium, nine days, 10 μM, read-out: Reduction of Ca^2+ deposition compared to no potential inhibitor): ~81%
- Concentration at which calcification is inhibited (as low as) ([2]; bVSMC GAD model, Example 5): 1 µM
- Ca^2+ concentration found in bVSMCs, mean ([2]; nine days, no GAD, 0.1 μM): 1.484 μg calcium/ml
- Ca^2+ concentration found in bVSMCs, mean ([2]; nine days, no GAD, 1 μM): 1.327 μg calcium/ml
- Ca^2+ concentration found in bVSMCs, mean ([2]; nine days, no GAD, 10 μM): 0.925 μg calcium/ml
- Ca^2+ concentration found in bVSMCs, mean ([2]; nine days, with GAD, 0.1 μM): 26.16 μg calcium/ml
- Ca^2+ concentration found in bVSMCs, mean ([2]; nine days, with GAD, 1 μM): 21.35 μg calcium/ml
- Ca^2+ concentration found in bVSMCs, mean ([2]; nine days, with GAD, 10 μM): 3.74 μg calcium/ml
- Ca^2+ concentration found in bVSMCs, mean ([2]; seven days, no GAD, 0.1 μM): 0.654 μg calcium/ml
- Ca^2+ concentration found in bVSMCs, mean ([2]; seven days, no GAD, 1 μM): 0.595 μg calcium/ml
- Ca^2+ concentration found in bVSMCs, mean ([2]; seven days, no GAD, 10 μM): 0.523 μg calcium/ml
- Ca^2+ concentration found in bVSMCs, mean ([2]; seven days, with GAD, 0.1 μM): 1.79 μg calcium/ml
- Ca^2+ concentration found in bVSMCs, mean ([2]; seven days, with GAD, 1 μM): 2 μg calcium/ml
- Ca^2+ concentration found in bVSMCs, mean ([2]; seven days, with GAD, 10 μM): 2.38 μg calcium/ml
- maximum concentration (Cmax) in a patient's bloodstream ([3]; 50 mg oral dose): 0.65 micrograms/mL
- half-life in the body ([3]; in vivo): approximately 12 hours
- Cell viability (%) mean ([4]; nine days, no GAD, 1 μM): 96.64%
- Cell viability (%) mean ([4]; nine days, no GAD, 10 μM): 105.1%
- Cell viability (%) mean ([4]; nine days, with GAD, 0.1 μM): 74.53%
- Cell viability (%) mean ([4]; nine days, with GAD, 1 μM): 72.42%
- Cell viability (%) mean ([4]; nine days, with GAD, 10 μM): 105.89%
- Drop off in formazan production (MTT) in the GAD-treatment group ([4]; nine days, with GAD, 10 μM): not observed
- Cell viability (%) mean ([4]; seven days, no GAD, 0.1 μM): 94.56%
- Cell viability (%) mean ([4]; seven days, no GAD, 1 μM): 91.09%
- Cell viability (%) mean ([4]; seven days, no GAD, 10 μM): 95.49%
- Cell viability (%) mean ([4]; seven days, with GAD, 1 μM): 96.84%
- Cell viability (%) mean ([4]; seven days, with GAD, 10 μM): 102.07%
- dosage needed to reach the concentration of 0.46 micrograms/mL [5]: approximately 20 mg

Reference: patent US10159685B2, “Vascular calcification” (Cambridge Enterprise Limited, priority 2016, dated 2018)
